Molecules are shown by their SMILES. Some results are limits rather than exact numbers.

The melting point is the temperature, or range, at which the solid turns liquid. The compound `CN1CCN(c2cccc(NC(=O)c3ccc(-c4ccncc4)cc3)c2)CC1` gave a melting point of 232 to 233 °C.

In the case of `N#CC(=Cc1ccc(Cl)cc1Cl)n1cncn1`, the melting point lay within 156 to 160 °C. As to `O=c1cc[nH]n1-c1c(Cl)cc(C(F)(F)F)cc1Cl`, the melting point was determined as 228 °C.

The compound `CCOC(=O)c1ccc(Oc2cccc3[nH]c4cnc(C(=O)OC(C)C)c(COC)c4c23)o1` registered a melting point of 191 to 192 °C.

For `COc1ccc2cc(C(C)C(=O)OCc3ccc(OC(=O)OCC[Si](C)(C)C)cc3)ccc2c1` (stereo unspecified), the melting point lay in the range of 58 to 59 °C. The figure for `CNC(=O)c1cc(-c2ccc(OC)cc2)nn(CC(=O)NCCO)c1=O` is 240 to 241 °C; for `O=C(O)CCCc1cc2nc(Cl)ccc2n1S(=O)(=O)c1ccc2c(c1)OCO2` it is 160 °C. As for `N#Cc1ccc2oc(Cc3cc4cc(C#N)ccc4o3)cc2c1`, the figure is 173 to 174 °C.

Consider `CC(=O)NC[C@H]1CN(c2ccc3c(c2)CS(=O)(=O)N3C)C(=O)O1`, for which the melting point fell in the range of 84 to 86 °C.

Regarding `Cn1cc(C(=O)O)c(=O)c2cc3cc(F)c(N4CCNC(c5ccc(OCCO)cc5)C4)cc3nc21` (racemic), the melting point is 276 °C. As for `COc1cc2c(Cl)nc3c4ccccc4nc(Cl)c3c2cc1OC`, the figure is 245 to 246 °C; as for `C#CCOC(=O)c1cc(-n2c(=O)cc(C)n(C)c2=O)c(F)cc1C#N`, 174 to 177 °C. As for `O=C(O)c1cn(C2CC2)c2c(F)c(N3CC4CCC3CN4)c(F)cc2c1=O` (stereo unspecified), the figure is 275 to 280 °C. As for `CN(Cc1ccc(OC(C)(C)C(=O)O)cc1)c1ccc(Cl)cc1`, the figure is 63 to 65 °C; as for `CC(=C(C#N)C(=O)Nc1ccccc1C(C)C)N(C)C`, 74 to 78 °C; as for `COCCOc1ccc(CCNC(=O)/C=C/c2cccs2)cc1S(=O)(=O)NC(=S)NC(C)C`, 101 °C. `CN1c2ccccc2Sc2c(C=O)cccc21` showed a melting point of 103 °C. `O=c1c2cc(O)ccc2[nH]c2c([N+](=O)[O-])cc([N+](=O)[O-])c(Cl)c12`: the melting point lay within 278 to 281 °C. Turning to `CN(C)CCNCCn1nc2c3c(c(NCCNCCO)ccc31)C(=O)c1c(O)ccc(O)c1-2`, the melting point was in the range of 148 to 153 °C. The figure for `O=C(Nc1ccc2ccc(Oc3ccccc3)nc2n1)c1ccsc1` is 95 °C. As for `CCCc1c(CO)ncn1S(=O)(=O)N(C)C`, the figure is 86 to 88 °C; as for `O=S(Cc1cccc(O)c1)c1nc2cnccc2[nH]1` (stereo unspecified), 224 to 227 °C; as for `CCc1nn2c(-c3ccc(Cl)cc3Cl)nc(C)nc2c1N(CC)CC`, 98 to 99 °C.

In turn, `CC1(C)OC(=O)Nc2ccc(-c3ccc(N)nc3)cc21` displayed a melting point of 257 to 259 °C. As for `CC(CN1CCC(Nn2cccc2)CC1)c1ccccc1` (stereo unspecified), the figure is 72 to 74 °C; as for `CCCCCCNC(=O)OCc1ccc(CNC(=O)OC2CCN(C(=O)Oc3ccc(Oc4ccccc4)cc3)CC2)cc1`, 116 to 118 °C; as for `COc1ccc(S(=O)(=O)N(Cc2cccnc2)c2c(C(=O)O)cnc3cc(C)nn23)cc1`, 249 to 251 °C. As for `FC(F)(F)c1ccccc1-c1n[nH]c(-c2ccccc2C(F)(F)F)n1`, the melting point lay within 190 to 192 °C.

`Cn1nc(C(F)(F)F)c(CN2C(=O)C3(COc4cc5c(cc43)OCO5)c3ccccc32)c1Cl` (stereo unspecified) returned a melting point of 180 to 182 °C.

The compound `CC(C)(OCc1cc2nc(Cl)ccc2n1S(=O)(=O)c1ccc2c(c1)OCO2)C(=O)O` came in with a melting point of 172 °C.

`CC(=O)N1CC=C(c2cc3c(cc2F)c(=O)c2c(=O)[nH]sc2n3C2CC2)CC1` showed a melting point of 243 to 244 °C. In turn, `COC(=O)c1ccc2cccc(C#N)c2c1` returned a melting point of 178 to 182 °C. As to `Cc1cc(=O)c2[nH]nc(C)c2[nH]1`, the melting point was above 346 °C. In turn, `CC(C)(C)OC(=O)N1CCC2(CC1)CC(c1ccc(C(C)(C)C)cc1)=NO2` returned a melting point of 172 to 173 °C. The figure for `COc1ncccc1NC(=O)Nc1ccc(N2CCN(C(=O)Nc3ccc(OCCO)cc3C(F)(F)F)CC2)cc1` is 120 to 123 °C. On to `Cc1c(NC(=O)c2ccc(CC(=O)CC(C)C)cc2)ccc2cc(CN3CCCC3)cnc12`, for which the melting point is 153 °C. As to `CC(C)(c1ccc(Oc2cccc(N3C(=O)C=CC3=O)c2)cc1)c1ccc(C(C)(C)c2ccc(Oc3cccc(N4C(=O)C=CC4=O)c3)cc2)cc1`, the melting point is 192 to 193 °C. The figure for `CC(C)CNC(=O)c1c[nH]c2ncc(-c3nn(C)c4cc(F)ccc34)nc12` is 285 to 287 °C; for `CN1CCN(C(=O)CCS)C(C(=O)O)C1` (stereo unspecified) it is 75 to 79 °C; for `CCOC(=O)c1cnc(Nc2ccccc2)[nH]c1=O` it is 267 to 269 °C. In turn, `COCc1sc(N)nc1C` yielded a melting point of 132 to 135 °C. In turn, `COC(=O)c1cc(Cl)cc2c1OCCN2` returned a melting point of 60 to 61 °C. As for `Cc1nc(N2CCc3ccccc3CC2)c(C#N)c(=O)n1C`, the figure is 155 to 158 °C; as for `Cc1ccc2c(=O)c(OC(=O)c3ccccc3)cn(C)c2c1`, 200 to 202 °C; as for `COc1ccc(CCNC(=O)C(=O)NCc2cccnc2)cc1OC1CCCC1`, 148 to 149 °C.

Consider `Cc1nc(-c2ccccc2)sc1C(=O)NCc1ccc(OC(C)(C)C(=O)O)cc1`, for which the melting point turned out to be 179 °C. The compound `Cc1c2c(c(-c3ccccc3)n1C)N(C)C(=O)CN=C2c1ccccc1` had a melting point of 232 to 234 °C. The figure for `CCCCCCCCCC(=O)Nc1ccc(C=C(C#N)C(=O)OCC)cc1` is 76 °C; for `COc1ccc2c(c1)OCC(c1ccc(C(F)(F)F)cc1)C2c1ccc(O)cc1` (stereo unspecified) it is 211 to 213 °C; for `CCOC(=O)c1c(NC(C)=O)cccc1C(C)=O` it is 88 °C. With `CC(C)C(CN(C)c1ccccc1)NS(=O)(=O)c1c(Cl)cc(Cl)cc1Cl` (stereo unspecified), the melting point fell in the range of 169 to 170 °C.

In turn, `N#CCOc1ccc(-c2cc(O)c(SCCc3ccccc3)c(=O)o2)cc1` gave a melting point of 157 to 159 °C. The figure for `CC(C)(Oc1ccc(Cl)cc1)C(=O)N1[C@@H](C(=O)O)C(C)(C)S[C@H]1c1ccccc1` is 177 to 181 °C; for `O=C1Cc2cccc(Nc3ccccc3)c2N1` it is 166 to 168 °C.

In the case of `CN1Cc2cccnc2C(N2CCN(C(=O)CC3CCN(C(=O)OC(C)(C)C)CC3)CC2)c2ccc(Cl)cc21` (stereo unspecified), the melting point is 86 to 98 °C. As for `CCCc1nc(-n2cccc2)c(CO)[nH]1`, the figure is 155 to 158 °C; as for `CSc1ccc(/C=C/C2=CC(=O)C(C)(C)O2)cc1`, 98 to 99.5 °C; as for `CCOC(O)(OCC)C(Cc1ccc2ccccc2c1)NC(=O)OC(C)(C)C` (stereo unspecified), 87 °C. In the case of `Cc1ccc(Cl)cc1N1CCN(c2nc(=O)c3cc(C(F)(F)F)cc([N+](=O)[O-])c3s2)CC1`, the melting point is 158 to 161 °C. On to `COc1cc(C)c(C(=O)c2c(O)ccc(Br)c2C)c(OC)c1OC`, for which the melting point fell in the range of 119 to 120 °C. The figure for `CCOC(=O)C1=C(CCN2C(=O)c3ccccc3C2=O)NC(CCN2C(=O)c3ccccc3C2=O)=C(C(=O)OCC)C1c1ccccc1Cl` is 170 °C; for `Cc1cc(Cl)ccc1N1CCCN(C)C1=S` it is 143 to 145 °C; for `O=C(O)C1(c2ccccc2)CCN(CCC(c2ccccc2)(c2ccccc2)c2ccccn2)CC1` it is 270 to 275 °C. As for `CSc1nnc(-c2ccc(OCC(O)CNCCOc3ccc(O)c(C(N)=O)c3)cc2)n1C` (stereo unspecified), the figure is 123 to 125 °C; as for `O=S(=O)(F)c1c(F)nc2ccccn12`, 108 to 110 °C; as for `Cc1ccc2[nH]cc(C(=O)[C@H]3CCCN3)c2c1`, 194 to 196 °C. The figure for `CN1CC(N2CC(=O)NC2=O)CC2c3cccc4[nH]cc(c34)CC21` (stereo unspecified) is 295 to 297 °C; for `O=C(O)Cc1cc(C(=O)c2ccc(F)cc2)ccc1O` it is 218 °C. For the compound `CCCOc1ncc(NC(C)=O)cc1-c1nc2c(CCC)nn(C)c2c(=O)[nH]1`, the melting point lay within 252 to 253 °C. For `COc1cc(OC)c(SC(C)(C)CC(=O)O)c(OC)c1`, the melting point lay within 103 to 105 °C.

In turn, `COC(=O)c1cccc(-c2nnc(-c3ccccc3N)cc2CCCO)c1` had a melting point of 141 °C.

`CN(C)C1=NC2=NC3=C(CN(Cc4ccccc4)CC3=O)CN2N1` showed a melting point of 279 to 281 °C.

`O=P1(c2ccc(C(F)(F)F)cc2)c2ccccc2CN1c1ccccc1` (stereo unspecified) displayed a melting point of 187 to 189 °C. In turn, `OCC1Cc2c(ccc3c(-c4ccccc4)noc23)O1` (stereo unspecified) registered a melting point of 107 to 109 °C. As for `CCOCCc1c(N=[N+]=[N-])nc(NC(=O)NCC(=O)OCC)nc1-c1ccccc1`, the figure is 130 °C; as for `COc1cccc2c1CN(c1c(F)cc3c(=O)c(C(=O)O)cn(-c4ccc(F)cc4F)c3c1F)C2`, 262 to 271 °C. As for `C#Cc1ccnc(NC(C)C)n1`, the figure is 84 to 85 °C; as for `O=C1c2cc(O)ccc2CCN1Cc1cccnc1`, 136 to 137 °C; as for `Cc1ccc2nc(OCC(=O)NCCCN(C)Cc3ccc(Cl)c(Cl)c3)oc2c1`, 62 to 66 °C.

As for `CS(=O)(=O)c1ccc(C(CC2CCCC2)C(=O)Nc2ccccn2)cc1S(C)(=O)=O` (stereo unspecified), the melting point was 107 to 110 °C. For the compound `CCCNCC(O)c1cccc(Cl)c1` (stereo unspecified), the melting point lay within 69.5 to 71 °C. In turn, `CCN(CC)CCSC1=C(C#N)C(c2ccccc2)(c2cccc(C(F)(F)F)c2)C(=O)N1` (stereo unspecified) had a melting point of 127 °C. `CCCc1c2nc(C(=O)Nc3ccccc3)cc(Cl)c2cc2c(=O)cc(C(=O)Nc3ccccc3)oc12`: the melting point is above 315 °C. The figure for `CS(=O)(=O)c1ccc(-n2ncc(C#N)c2-c2ccc(-c3ccco3)cc2)cc1` is 229 to 230 °C. Compound `COc1ccc(S(=O)(=O)Nc2cccc(C)c2NC(=O)c2ccccn2)cc1` gave a melting point of 180 to 182 °C. The figure for `COc1ccc(S(=O)(=O)n2ccc3cccc(-c4ccc(F)cc4)c32)cc1` is 181 to 182 °C.
